Patent US6995182B2, “1-sulfonyl pyrrolidine derivatives” (Hoffmann-La Roche Inc., priority 2000, dated 2006)

Key:
rat mGlu 1a receptor = biological target: T1, rat mGlu 1a receptor (Rattus norvegicus, UniProt P23385); experiment: [Ca2+]i measurements (FLIPR, Fluo-3 AM) on mGlu 1a transfected EBNA cells; format: cell-based; conditions: rat mGlu 1a receptor transiently transfected into EBNA cells, agonist activity
T1 construct: expressed in transfected cells; host or cells: EBNA cells (transient transfection)
T1 sequence (P23385 19-1199): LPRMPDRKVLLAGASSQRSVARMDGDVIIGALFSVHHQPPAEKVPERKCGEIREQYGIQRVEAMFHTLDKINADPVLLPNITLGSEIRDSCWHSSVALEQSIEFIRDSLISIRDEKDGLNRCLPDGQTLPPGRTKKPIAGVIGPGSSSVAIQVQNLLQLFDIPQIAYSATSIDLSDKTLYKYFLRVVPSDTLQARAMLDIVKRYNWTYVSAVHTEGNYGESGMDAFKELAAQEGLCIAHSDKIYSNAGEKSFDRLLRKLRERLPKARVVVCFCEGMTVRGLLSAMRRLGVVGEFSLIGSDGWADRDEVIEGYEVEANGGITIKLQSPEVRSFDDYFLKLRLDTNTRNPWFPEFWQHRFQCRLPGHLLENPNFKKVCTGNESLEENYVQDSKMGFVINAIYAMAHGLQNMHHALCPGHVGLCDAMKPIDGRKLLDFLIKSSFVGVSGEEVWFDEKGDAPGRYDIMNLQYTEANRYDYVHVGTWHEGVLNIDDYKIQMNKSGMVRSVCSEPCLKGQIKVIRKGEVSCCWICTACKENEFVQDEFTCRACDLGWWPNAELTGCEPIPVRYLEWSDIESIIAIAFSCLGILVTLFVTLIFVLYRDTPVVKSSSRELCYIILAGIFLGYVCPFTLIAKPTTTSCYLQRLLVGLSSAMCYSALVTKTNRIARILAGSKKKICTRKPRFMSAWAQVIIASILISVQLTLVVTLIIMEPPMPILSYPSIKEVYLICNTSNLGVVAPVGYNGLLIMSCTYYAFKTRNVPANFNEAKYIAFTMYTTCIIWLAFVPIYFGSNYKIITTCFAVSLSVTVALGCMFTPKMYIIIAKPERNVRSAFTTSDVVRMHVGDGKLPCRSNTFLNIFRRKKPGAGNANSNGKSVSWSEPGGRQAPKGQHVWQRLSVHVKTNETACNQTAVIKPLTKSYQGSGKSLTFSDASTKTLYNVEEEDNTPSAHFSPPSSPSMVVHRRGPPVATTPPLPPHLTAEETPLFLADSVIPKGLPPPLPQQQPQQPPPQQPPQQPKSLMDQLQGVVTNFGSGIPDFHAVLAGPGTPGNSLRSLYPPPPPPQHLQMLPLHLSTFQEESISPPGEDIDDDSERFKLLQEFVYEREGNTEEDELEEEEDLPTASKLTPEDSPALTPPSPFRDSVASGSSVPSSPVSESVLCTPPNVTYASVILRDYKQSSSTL
Experimental: The pharmacological activity of the compounds was tested using the following method: cDNA encoding rat mGlu 1a receptor was transiently transfected into EBNA cells using a procedure described by E.-J. Schlaeger and K. Christensen (Transient gene expression in mammalian cells grown in serum-free suspension culture; Cytotechnology, 15: 1–13, 1998). [Ca^2+]i measurements were performed on mGlu 1a transfected EBNA cells after incubation of the cells with Fluo-3 AM (0.5 μM final concentration) for 1 hour at 37° C. followed by 4 washes with assay buffer (DMEM supplemented with Hank's salt and 20 mM HEPES. [Ca^2+]i measurements were done using a fluorometric imaging plate reader (FLIPR, Molecular Devices Corporation, La Jolla, Calif., USA). When compounds were evaluated as antagonists they were tested against 10 μM glutamate as agonist.
The inhibition (antagonists) or activation (agonists) curves were fitted with a four parameter logistic equation giving EC50, IC50, and Hill coefficient using the iterative non linear curve fitting software Origin (Microcal Software Inc., Northampton, Mass., USA).

Row | SMILES | melting point | EC50 (rat mGlu 1a receptor)
1 | Cc1ccc(S(=O)(=O)N2[C@@H](C#N)CC[C@H]2c2ccc(F)cc2)cc1 (racemic) [Example 4, (2RS,5SR)-5-(4-Fluoro-phenyl)-1-(toluene-4-sulfonyl)-pyrrolidine-2-carbonitrile] | 128 °C | 4400 nM
2 | Cc1ccc(S(=O)(=O)N2[C@@H](CCl)CC[C@H]2c2ccc(F)cc2)cc1 (racemic) [Example 5, (2RS,5SR)-2-Chloromethyl-5-(4-fluoro-phenyl)-1-(toluene-4-sulfonyl)-pyrrolidine] | 130 °C | 1400 nM
3 | Cc1ccc(S(=O)(=O)N2[C@@H](CNC(=O)C3CC3)CC[C@H]2c2ccc(F)cc2)cc1 (racemic) [Example 16, (2RS,5SR)-Cyclopropanecarboxylic acid [5-(4-fluoro-phenyl)-1-(toluene-4-sulfonyl)-pyrrolidin-2-yl-methyl]-amide] | 154 °C | 210 nM
4 | Cc1ccc(S(=O)(=O)N2[C@@H](Cc3noc(C)n3)CC[C@H]2c2ccc(F)cc2)cc1 (racemic) [Example 21, (2RS,5SR)-3-[5-(4-Fluoro-phenyl)-1-(toluene-4-sulfonyl)-pyrrolidin-2-yl-methyl]-5-methyl-[1,2,4]oxadiazole] | – | 630 nM
5 | Cc1ccc(S(=O)(=O)N2[C@@H](Cc3nnn(C)n3)CC[C@H]2c2ccc(F)cc2)cc1 (racemic) [Example 39, (2RS,5SR)-5-[5-(4-Fluoro-phenyl)-1-(toluene-4-sulfonyl)-pyrrolidin-2-yl-methyl]-2-methyl-2H-tetrazole] | – | 360 nM
6 | Cc1ccc(S(=O)(=O)N2[C@H](CCCCC#N)CC[C@@H]2c2ccc(F)cc2)cc1 (racemic) [Example 51, (2RS,5RS)-5-[5-(4-Fluoro-phenyl)-1-(toluene-4-sulfonyl)-pyrrolidin-2-yl]-pentanenitrile] | 79 °C | –
7 | Cc1ccc(S(=O)(=O)N2[C@H](CCCCc3nnnn3C)CC[C@@H]2c2ccc(F)cc2)cc1 (racemic) [Example 54, (2RS,5RS)-5-{4-[5-(4-Fluoro-phenyl)-1-(toluene-4-sulfonyl)-pyrrolidin-2-yl]-butyl}-1-methyl-1H-tetrazole] | 120 °C | –
8 | CC(=O)NCC[C@H]1CC[C@@H](c2ccc(F)cc2)N1S(=O)(=O)c1ccc(Cl)cc1 (racemic) [Example 56, (2RS,5SR)-N-{2-[1-(4-Chloro-benzenesulfonyl)-5-(4-fluoro-phenyl)-pyrrolidin-2-yl]-ethyl}-acetamide] | 103 °C | –
9 | O=C(NCC[C@H]1CC[C@@H](c2ccc(F)cc2)N1S(=O)(=O)c1ccc(Cl)cc1)C1CC1 (racemic) [Example 57, (2RS,5SR)-Cyclopropanecarboxylic acid {2-[1-(4-chloro-benzenesulfonyl)-5-(4-fluoro-phenyl)-pyrrolidin-2-yl]-ethyl}-amide] | 80 °C | –
10 | CC(=O)NCCC[C@@H]1CC[C@H](c2ccc(F)cc2)N1S(=O)(=O)c1ccc(Cl)cc1 (racemic) [Example 66, (2RS,5RS)-N-{3-[1-(4-Chloro-benzenesulfonyl)-5-(4-fluoro-phenyl)-pyrrolidin-2-yl]-propyl}-acetamide] | 49 °C | –
11 | Cc1ccc(S(=O)(=O)N2[C@H](CCCc3nc(C)no3)CC[C@@H]2c2ccc(F)cc2)cc1 (racemic) [Example 71, (2RS,5RS)-5-{3-[5-(4-Fluoro-phenyl)-1-(toluene-4-sulfonyl)-pyrrolidin-2-yl]-propyl}-3-methyl-[1,2,4]oxadiazole] | 91 °C | –
12 | Cn1nnc(CC[C@H]2CC[C@@H](c3ccc(F)cc3)N2S(=O)(=O)c2ccc(Cl)cc2)n1 (racemic) [Example 73, (2RS,5SR)-5-{2-[1-(4-Chloro-benzenesulfonyl)-5-(4-fluoro-phenyl)-pyrrolidin-2-yl]-ethyl}-2-methyl-2H-tetrazole] | 122 °C | –
13 | Cc1ccc(S(=O)(=O)N2[C@@H](CCc3nc(C4CC4)no3)CC[C@H]2c2ccc(F)cc2)cc1 (racemic) [Example 75, (2RS,5SR)-3-Cyclopropyl-5-{2-[5-(4-fluoro-phenyl)-1-(toluene-4-sulfonyl)-pyrrolidin-2-yl]-ethyl}-[1,2,4]oxadiazole] | 129 °C | –
14 | Cc1ccc(S(=O)(=O)N2[C@H](CCCNS(C)(=O)=O)CC[C@@H]2c2ccc(F)cc2)cc1 (racemic) [Example 77, (2RS,5RS)-N-{3-[5-(4-Fluoro-phenyl)-1-(toluene-4-sulfonyl)-pyrrolidin-2-yl]-propyl}-methanesulfonamide] | 123 °C | 160 nM
15 | Cc1ccc(S(=O)(=O)N2[C@@H](CCc3ncnn3C)CC[C@H]2c2ccc(F)cc2)cc1 (racemic) [Example 78, (2RS,5SR)-5-{2-[5-(4-Fluoro-phenyl)-1-(toluene-4-sulfonyl)-pyrrolidin-2-yl]-ethyl}-1-methyl-1H-[1,2,4]triazole] | 145 °C | –
16 | Cc1ccc(S(=O)(=O)N2CCCC2CCCNC(=O)C2CC2)cc1 (racemic) [Example 87, (RS)-Cyclopropanecarboxylic acid {3-[1-(toluene-4-sulfonyl)-pyrrolidin-2-yl]-propyl}-amide] | – | 980 nM
17 | Cc1ccc(S(=O)(=O)N2[C@@H](Cc3nc(C4CC4)no3)CC[C@H]2c2ccc(F)cc2)cc1 (racemic) [Example 95, (2RS,5SR)-3-Cyclopropyl-5-[5-(4-fluoro-phenyl)-1-(toluene-4-sulfonyl)-pyrrolidin-2-ylmethyl]-[1,2,4]oxadiazole] | 102 °C | –
18 | Cc1ccc(S(=O)(=O)N2[C@@H](Cc3nc(C)no3)CC[C@H]2c2ccc(F)cc2)cc1 (racemic) [Example 96, (2RS,5SR)-5-[5-(4-Fluoro-phenyl)-1-(toluene-4-sulfonyl)-pyrrolidin-2-ylmethyl]-3-methyl-[1,2,4]oxadiazole] | 103 °C | –
19 | Cc1ccc(S(=O)(=O)N2[C@@H](CCO)CC[C@H]2c2ccc(F)cc2)cc1 (racemic) [Example 98, (2RS,5SR)-2-[5-(4-Fluoro-phenyl)-1-(toluene-4-sulfonyl)-pyrrolidin-2-yl]-ethanol] | 129 °C | –
20 | Cc1ccc(S(=O)(=O)N2[C@@H](CCn3cccn3)CC[C@H]2c2ccc(F)cc2)cc1 (racemic) [Example 100, (2RS,5SR)-1-{2-[5-(4-Fluoro-phenyl)-1-(toluene-4-sulfonyl)-pyrrolidin-2-yl]-ethyl}-1H-pyrazole] | 121 °C | –
21 | Cc1ccc(S(=O)(=O)N2[C@@H](CCn3ncnn3)CC[C@H]2c2ccc(F)cc2)cc1 (racemic) [Example 101, (2RS,5SR)-2-{2-[5-(4-Fluoro-phenyl)-1-(toluene-4-sulfonyl)-pyrrolidin-2-yl]-ethyl}-2H-tetrazole] | – | 1470 nM
22 | Cc1ccc(S(=O)(=O)N2[C@H](CCCc3nc(C)cc(C)n3)CC[C@@H]2c2ccc(F)cc2)cc1 (racemic) [Example 123, (2RS,5RS)-2-{3-[5-(4-Fluoro-phenyl)-1-(toluene-4-sulfonyl)-pyrrolidin-2-yl]-propyl}-4,6-dimethyl-pyrimidine] | – | 1280 nM
23 | Cc1ccc(S(=O)(=O)N2[C@@H](CCc3nnco3)CC[C@H]2c2ccc(F)cc2)cc1 (racemic) [Example 127, (2RS,5SR)-2-{2-[5-(4-Fluoro-phenyl)-1-(toluene-4-sulfonyl)-pyrrolidin-2-yl]-ethyl}-[1,3,4]oxadiazole] | 138 °C | –
24 | Cc1ccc(S(=O)(=O)N2[C@@H](c3nnco3)CC[C@H]2c2ccc(F)cc2)cc1 (racemic) [Example 137, (2RS,5SR)-2-[5-(4-Fluoro-phenyl)-1-(toluene-4-sulfonyl)-pyrrolidin-2-yl]-[1,3,4]oxadiazole] | – | 1240 nM
25 | Cc1ccc(S(=O)(=O)N2[C@H](CCCCn3ncnn3)CC[C@@H]2c2ccc(F)cc2)cc1 (racemic) [Example 143, (2RS,5RS)-2-{4-[5-(4-Fluoro-phenyl)-1-(toluene-4-sulfonyl)-pyrrolidin-2-yl]-butyl}-2H-tetrazole] | – | 350 nM
26 | Cc1ccc(S(=O)(=O)N2C(CCCO)CC[C@H]2c2ccc(F)cc2)cc1 (stereo in doubt) [Example 64, (2S,5S)-3-[5-(4-Fluoro-phenyl)-1-(toluene-4-sulfonyl)-pyrrolidin-2-yl]-propan-1-ol] | – | 200 nM
27 | Cc1ccc(S(=O)(=O)N2C(C3=NOC(C)N3)CCC2c2ccc(F)cc2)cc1 (stereo not shown) [Example 28, 3-[5-(4-Fluoro-phenyl)-1-(toluene-4-sulfonyl)-pyrrolidin-2-yl]-5-methyl-4,5-dihydro-[1,2,4]oxadiazole] | 68 °C | –
28 | Cc1ccc(S(=O)(=O)N2[C@@H](CO)CC[C@H]2c2ccc(F)cc2)cc1 [Example 58, (2R,5S)-[5-(4-Fluoro-phenyl)-1-(toluene-4-sulfonyl)-pyrrolidin-2-yl]-methanol] | 140 °C | –
29 | Cc1ccc(S(=O)(=O)N2[C@@H](CCCO)CC[C@H]2c2ccc(F)cc2)cc1 [Example 64, (2S,5S)-3-[5-(4-Fluoro-phenyl)-1-(toluene-4-sulfonyl)-pyrrolidin-2-yl]-propan-1-ol] | 96 °C | –
30 | Cc1ccc(S(=O)(=O)N2[C@@H](CCCn3ccnc3)CC[C@H]2c2ccc(F)cc2)cc1 [Example 116, (2S,5S)-1-{3-[5-(4-Fluoro-phenyl)-1-(toluene-4-sulfonyl)-pyrrolidin-2-yl]-propyl}-1H-imidazole] | – | 220 nM
